Assay results reported in patent US11389413B2, “Methods of preparing compositions containing thymoquinone” (Jina Pharmaceuticals, Inc., priority 2017, dated 2022).

Experiments:
[1] = test system: streptozotocin (STZ) induced diabetic mice; test: Hypoglycemic activity in streptozotocin-induced diabetic mice (blood glucose, water intake); format: in vivo, Male ICR (CD-1) mice
Procedure: Induction of Experimental Diabetes in Mice: Male ICR (CD-1) mice (8-9 weeks of age) were fasted for 6 hrs. before streptozotocin (STZ) administration. Fresh STZ solution at 15 mg/mL was prepared by dissolving powder STZ into 1 mM citrate buffer (pH 4.5). Mice received i.p. STZ solution of 150 mg/kg. Fasting blood glucose level was measured from tail vein blood. Mice with blood glucose levels of 250 mg/dL or higher were considered to be diabetic. Blood samples with “HI” (>600 mg/dL) reading were diluted with same amount of normal saline before measuring again.
A total of 20 diabetic mice were randomized based on the blood glucose levels into two study groups, group A: Metformin (Met)-treated, and group B: Thymoquinone/Metformin (TQ/Met)-treated groups.
There were 10 animals in each group. Mice in group A received oral administration of Met at a dose of 200 mg/kg every day. Mice in group B received oral administration of Met+TQ (200 mg/kg+50 mg/kg) every day using a 20-Ga stainless feeding needle. Fasting blood glucose level was measured weekly.
Water intake was also estimated by weighing each water bottle before and after a period of 24 hrs. The volume of water consumed was estimated from the weight of water consumed. The volume of water consumed by each cage was normalized with body weight and presented as mL/30 g BW over 24 hrs.

[2] = cited from earlier work
[3] = test system: Lipopolysaccaride/D-Galactosamine (LPS/GaIN) induced acute liver failure; test: LPS/GalN induced acute liver failure, survival; format: in vivo, Male C57BL6 mice; conditions: TQ 200 mg/kg oral gavage 30 min after LPS/GalN injection; all control mice died in over 7 hrs
Procedure: A total of 13 male C57BL6 mice (5-6 weeks of age) were injected intraperitoneally with D-galactosamine (GaIN, Carbosynth) (800 mg/kg) and lipopolysaccharide (LPS from E coli 0127:B8, Sigma-Aldrich) (10 μg/kg) dissolved in normal saline. 30 min after LPS/GalN injection, 6 mice in the control group received purified water (20 mL/kg) and 7 mice received a TQ at a dose of 200 mg/kg, via oral gavage. Survival was monitored for 48 hrs. All mice in the control group died in over 7 hrs. period following the injection of LPS/GalN, while 4 out of 7 mice treated with TQ survived up to 48 hrs. (see FIG. 2).

[4] = cited from earlier work; remark: listed apart in the source

| Compound | Blood Glucose Level, Pre-Treat ([1]; fasting blood glucose, STZ diabetic mice, before treatment, Mean ± SD, n = 10) | Blood Glucose Level, 1-Week Treat ([1]; fasting blood glucose, oral daily dosing, 1 week, Mean ± SD, n = 10) | Blood Glucose Level, 2-Week Treat ([1]; fasting blood glucose, oral daily dosing, 2 weeks, Mean ± SD, n = 10) | Blood Glucose Level, 3-Week Treat ([1]; fasting blood glucose, oral daily dosing, 3 weeks, Mean ± SD, n = 10) | decrease in blood glucose level ([1]; over 3-week period, oral daily, Met 200 mg/kg, Met+TQ 200 mg/kg+50 mg/kg) | solubility in aqueous buffers [2] | mice surviving up to 48 hrs [3] | stability in aqueous solutions [4] |
| --- | --- | --- | --- | --- | --- | --- | --- | --- |
| CN(C)C(=N)N=C(N)N [Met, Metformin] | 443 ± 102 mg/dL | 433 ± 115 mg/dL | 290 ± 84 mg/dL | 299 ± 96 mg/dL | 32.5% | – | – | – |
| CC1=CC(=O)C(C(C)C)=CC1=O [TQ, 2-Isopropyl-5-methyl-1,4-benzoquinone] | – | – | – | – | – | approx. 500 μg/mL | 4 out of 7 | highly unstable |
